# Reference: US20050187581A1, “Methods of treating disorders with electric fields” (priority 2000, published 2005)
# Like-named read-outs stand apart in the source and are kept apart here.
# What was measured:
# [1] = Antioxidant activity (AOA) of plasma from AAPH-treated rats, against AAPH; format: in vivo, Sprague-Dawley rats; conditions: for AOAAAPH: ascorbic acid 500 mg/kg p.o., SOD 50 mg/kg s.c., mean ± SEM, n=8
# Experimental: (§1) To examine the effects of EF effect during oxidative stress, rats were divided into five groups (n=8) as follows: 1) non-treatment; 2) treatment with the oxidizing agent, AAPH, on experimental day seven; 3) co-treatment with EF and AAPH; 4) co-treatment with AAPH and the anti-oxidant agent, ascorbic acid; or 5) co-treatment with AAPH and superoxide dismutase. Rats of Group 3 were exposed to a sine wave of 50 Hz, 17,500 V/m intensity, 15 minutes per day for one week. In addition, Groups 1, 2, 4 and 5 were sham EF exposed, in which were maintained for an equal period of time inside the exposure cage with the system turned off. On the seventh day after EF was started, Group 3 was exposed to EF just after administration of AAPH (10 mg/kg, i.p.). In Group 4, ascorbic acid (500 mg/kg, p.o.) was administered 60 minutes before of the AAPH treatment. Superoxide dismutase (50 mg/kg, s.c., Nacalai Tesque, Tokyo, Japan) was administered to Group 5 just before the AAPH treatment. Under pentobarbital (45 mg/kg, i.p.) anesthesia, blood was collected from the abdominal cava vein 90 minutes later after AAPH administration, and the plasma was separated by centrifugation at 1,670×g for 10 minutes at 4° C. The plasma samples were stored at −80° C. until tested.
# (§2) Plasma AOA was measured by a method using a derivative of methylene blue. Briefly, 0.1 ml plasma or a solution of ascorbic acid (Wako Ltd., Osaka, Japan) and 0.65 ml distilled water was added into 1.5 ml of Good's buffer adjusted to pH 5.8 (Good et al., 1966), including 1% triton X-100 supplemented with 3,7-bis-demethylamino-10-methyl carbamoyl phenothiazine (MCDP, 40 μM, KYOWA MEDEX Co., Ltd., Tokyo, Japan) and hemoglobin (67.5 μg/ml). After incubation for one minute at 37° C., 0.25 ml of tert-butylhydroperoxide (84 μM, BHP, Aldrich) as an alkoxyl radical initiator was added and reacted for 10 minutes at 37° C. In addition, AOA measurements in a reaction using AAPH (50 mM) as a peroxy radical initiator were conducted in Good's buffer without hemoglobin for 20 minutes at 37° C. A radical initiator not trapped by an antioxidant in each plasma sample will oxidize MCDP. The absorbance of the resultant blue color was subsequently measured by absorbance at 675 nm using a spectrophotometer (150-20, Hitachi). The equation to calculate AOA was the following: AOA (%)=(1−Abs1/Abs2)×100, where Abs1 is the absorbance of the plasma sample, and Abs2 is a value of the blank.
# [2] = Antioxidant activity (AOA) of plasma from AAPH-treated rats, against BHP; format: in vivo, Sprague-Dawley rats; conditions: for Plasma antioxidant activity against BHP: ascorbic acid 500 mg/kg p.o., SOD 50 mg/kg s.c., mean ± SEM, n=8
# Experimental: as §1, §2
# AAPH-treated rats = assay: Plasma lipid peroxide (TBARS) levels in AAPH-treated rats; format: in vivo, Sprague-Dawley rats; conditions: for Plasma levels of lipid peroxide compared to the sham EF-exposed group: AAPH-treated rats, P<0.05 (ascorbic acid), P<0.01 (superoxide dismutase); for Malondialdehyde concentration: plasma lipid peroxide, AAPH 10 mg/kg i.p., ascorbic acid 500 mg/kg p.o., SOD 50 mg/kg s.c., mean ± SEM, n=8
# Experimental: as §1
# Thiobarbituric acid reactive substance (TBARS), as an indicator of the plasma concentration of lipid peroxide, was measured using a commercialized kit (Lipid peroxide-test Wako, Wako Ltd., Osaka, Japan).
# [3] = Antioxidant activity (AOA) of rat plasma, ascorbic acid added in the test tube, AAPH as radical initiator; format: biochemical, Sprague-Dawley rats
# Experimental: (§3) To examine the effects of EF on unstressed rats, rats were exposed to a sine wave of 50 Hz, 17,500 V/m intensity, 15 minutes per day for 1 one week. Each rat in three groups (n=5) was individually treated with an EF or a sham EF, or was not treated. Rats exposed to sham EF were maintained for an equal period of time inside the exposure cage with the system turned off. Under pentobarbital (45 mg/kg, i.p.) anesthesia, blood was collected from the abdominal cava vein after EF exposure on experimental day seven, and the plasma was separated by centrifugation at 1,670×g for 10 minutes at 4° C. The plasma samples were stored at −80° C. until tested.
# (§4) Plasma AOA was measured by a method using a derivative of methylene blue. Briefly, 0.1 ml plasma or a solution of ascorbic acid (Wako Ltd., Osaka, Japan) and 0.65 ml distilled water was added into 1.5 ml of Good's buffer adjusted to pH 5.8 (Good et al., 1966), including 1% triton X-100 supplemented with 3,7-bis-demethylamino-10-methyl carbamoyl phenothiazine (MCDP, 40 μM, KYOWA MEDEX Co., Ltd., Tokyo, Japan) and hemoglobin (67.5 μg/ml). […] The absorbance of the resultant blue color was subsequently measured by absorbance at 675 nm using a spectrophotometer (150-20, Hitachi). The equation to calculate AOA was the following: AOA (%)=(1−Abs1/Abs2)×100, where Abs1 is the absorbance of the plasma sample, and Abs2 is a value of the blank.
# [4] = Antioxidant activity (AOA) of rat plasma, ascorbic acid added in the test tube, BHP as radical initiator; format: biochemical, Sprague-Dawley rats
# Experimental: as §3, §4
# [5] = target: T1, human calcium receptor protein (HuPCaR) (Homo sapiens, UniProt P41180); assay: FURA2 ratio fluorimetry of HuPCaR cells on stepwise additions of extracellular CaCl2; format: cell-based
# T1 construct: expressed in transfected cells; host or cells: HEK (human embryonic kidney) cells, stably transfected
# T1 sequence (P41180 20-1078): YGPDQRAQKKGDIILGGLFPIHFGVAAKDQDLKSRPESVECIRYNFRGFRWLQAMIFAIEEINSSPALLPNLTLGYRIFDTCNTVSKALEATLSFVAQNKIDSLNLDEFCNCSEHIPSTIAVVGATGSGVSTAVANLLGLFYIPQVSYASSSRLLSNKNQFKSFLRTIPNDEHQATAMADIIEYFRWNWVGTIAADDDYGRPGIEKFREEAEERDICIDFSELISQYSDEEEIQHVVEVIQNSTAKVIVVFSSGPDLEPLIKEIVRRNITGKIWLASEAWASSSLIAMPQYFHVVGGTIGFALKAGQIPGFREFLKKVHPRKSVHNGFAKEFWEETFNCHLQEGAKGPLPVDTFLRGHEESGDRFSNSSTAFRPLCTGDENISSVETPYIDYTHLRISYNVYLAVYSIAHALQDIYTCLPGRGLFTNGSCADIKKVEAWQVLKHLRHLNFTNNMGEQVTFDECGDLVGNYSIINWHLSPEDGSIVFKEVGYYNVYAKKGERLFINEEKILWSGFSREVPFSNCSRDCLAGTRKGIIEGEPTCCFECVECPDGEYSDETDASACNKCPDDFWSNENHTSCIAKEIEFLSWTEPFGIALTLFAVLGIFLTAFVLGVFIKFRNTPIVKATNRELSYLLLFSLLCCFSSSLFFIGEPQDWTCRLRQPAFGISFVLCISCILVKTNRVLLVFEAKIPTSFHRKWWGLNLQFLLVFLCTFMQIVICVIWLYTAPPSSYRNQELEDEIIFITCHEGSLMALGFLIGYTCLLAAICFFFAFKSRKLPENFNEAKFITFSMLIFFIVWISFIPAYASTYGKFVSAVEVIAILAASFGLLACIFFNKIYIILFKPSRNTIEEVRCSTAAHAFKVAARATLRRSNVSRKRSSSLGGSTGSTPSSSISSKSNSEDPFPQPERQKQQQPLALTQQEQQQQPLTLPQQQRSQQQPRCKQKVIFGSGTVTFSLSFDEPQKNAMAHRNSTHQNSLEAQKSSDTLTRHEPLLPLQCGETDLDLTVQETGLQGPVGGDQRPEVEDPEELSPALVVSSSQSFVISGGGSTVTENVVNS
# Experimental: In selected experiments, ionomycin (1 micromolar final concentration-stock dissolved in dimethyl sulfoxide) was added in order to quantify differences in FURA2 ratio fluorescence. Ionomycin was added to the cells to obtain a maximal fluorescence signal from the FURA2 for purposes of quantification. FIG. 15 outlines the experimental system that was utilized to obtain the data described below. Cultured HEK or HuPCaR cells were loaded with FURA2 after their growth on plastic tissue culture dishes, scraped and rinsed in buffer to create a cell suspension that was then divided into various aliquots. Selected aliquots were exposed to EF in the EF exposure device. Subsequent to either EF exposure or sham control (no EF) treatments, aliquots of cells were used for standard ratio imaging fluorimetry analysis to measure changes in intracellular Ca^2+ concentrations. Initially, measurements were obtained of the baseline intracellular Ca^2+ concentration for each aliquot of cells as shown by the bracket marked #1 in FIG. 15. […] In an effort to obtain more quantitative data from individual aliquots within an individual experiment as well as comparison of data from different experiments, we incorporated the use of ionomycin as shown in FIG. 13 to determine the maximal FURA2 signal achievable within each aliquot of cells. […]
# mouse splenocytes = assay: [Ca^2+]c-high cells in lectin-stimulated mouse splenocytes, fluo-3 flow cytometry; format: cell-based, BALB/c mice; conditions: 5 μg/ml PHA, 1 mM CaCl2; EF-exposed and unexposed cells
# Experimental: In order to avoid contact of the cells and the lower electrode, polycarbonate membrane (Isopore, MILLIPORE, MA USA) was placed between the dish and the insert. Approximately 1 ml of the cell suspension was poured into culture well/space and covered with a lid.
# Female BALB/c mice, 4-7 wk old obtained from CLEA Inc. (Tokyo, Japan) maintained in a conventional animal house equipped with clean air-filtering device were splenectomized under anesthesia, and cell suspensions of splenocytes were prepared. To examine cell viability, the cells were cultivated in Dulbecco's modified Eagle's medium (SIGMA, MO, USA) supplemented with 10% fetal bovine serum (FSB). The cells were maintained in Hank's balanced salt solution (HBSS) (SIGMA, MO, USA) during examination for [Ca^2+]c which was carried out within 4 hr after cell preparation. Cells were stored at 4 degree C. prior to use.
# Splenocytes (10^6 cells/ml) were incubated for 20 min at 37 degrees C. in HBSS containing 2.5 μM fluo-3-acetoxylmethyl (Molecular Probes, USA) [Vandenberghe et al., 1990]. The cell suspension was then diluted 5 times with HBSS containing 1% FBS, incubated for 40 min at 37 degrees C., washed 3 times with assay buffer, and the cells were then suspended in the assay buffer at a concentration of 1×10^6/ml. Throughout the cell preparation, the cell suspensions were mixed gently.
# Considering the reported synergistic interaction between EMF and mitogen (Walleczek and Liburdy, 1990), concanavalin-A (Con-A) (Seikagaku Co., Tokyo, Japan) and phytohemaglutinin (PHA) (SIGMA, MO, USA) were used.
# Taking into account the results of the viability test for exposed murine splenocytes earlier assayed, we chose to use the optimum culture and exposure conditions (60 Hz, 6 μA/cm^2 EF) in carrying out the following five experiments: • (1) cells suspended in HEPES-buffered saline (BS)+1 mM CaCl2 were exposed to EF for a total of 40 min, and 12.5 μg/ml of Con-A was added after the first 8 min of exposure. The control groups consisted of EF-unexposed cells containing Con-A, and EF-exposed cells without Con-A. Percent [Ca^2+]c-high cells was checked at certain exposure points; • (2) cells in HEPES-BS+1 mM CaCl2 were exposed for a total of 12 min, and different concentrations (1 ng-12.5 μg/ml) of Con-A were added after the first 4 min of exposure. The control group was essentially the same as that of the experimental group but without EF-exposure; • (3) cells in HEPES-BS+1 mM CaCl2 were exposed for a total of 8 min, and 5 μg/ml of PHA was added after the first 4 min of exposure. The control groups consisted of EF-unexposed cells containing PHA, and EF-exposed cells without PHA; • (4) cells suspended in HEPES-BS without CaCl2 were exposed for a total of 12 min, and different concentrations (1 ng-5 μg/mil) of Con-A were added after the first 4 min of exposure. The control group was essentially the same as the experimental group but without EF exposure; and • (5) to evaluate the persistent effect of EF exposure, cells suspended in HEPES-BS+[…] were exposed for a total of 4 min, after which different concentrations (0.025-12.5 μg/ml) of Con-A were added, and the generation of [Ca^2+]c-high cells for the next 8 min without EF exposure was monitored with flow cytometry. The control was essentially the same as the experimental group but without any EF-exposure. Statistical Analysis
# [6] = added to plasma of the non-treatment group, P<0.01
# [7] = ascorbic acid 440 ng/ml added to plasma of non-treatment group, mean ± SEM, n=5
compound,measurement,setting,value
"CC(C)(N=NC(C)(C)C(=N)N)C(=N)N.Cl.Cl [AAPH, 2,2′-azobis(2-amidinopropane)dihydrochloride]",Change in plasma AOA against AAPH in rats treated with AAPH,[1]; AAPH 10 mg/kg i.p.,suppression
same,Change in plasma AOA against BHP in rats treated with AAPH,[2]; AAPH 10 mg/kg i.p.,did not show any changes
"O=C1O[C@H]([C@@H](O)CO)C(O)=C1O [Ascorbic acid, ascorbic acid]",Plasma levels of lipid peroxide compared to the sham EF-exposed group,AAPH-treated rats,lower
same,Malondialdehyde concentration,AAPH-treated rats,1.509 ± 0.05 nmol/mL
same,AOA of plasma against AAPH after addition of ascorbic acid,[3]; [6],significantly elevated
same,AOAAAPH,[3]; [7],62.0 ± 3.8 %
same,AOA of plasma against BHP after addition of ascorbic acid,[4]; [6],significantly elevated
same,AOABHP,[4]; [7],87.7 ± 0.3 %
same,Plasma AOA compared to the other four groups,"[1]; AAPH-treated rats, P<0.01",significantly higher
same,AOAAAPH,[1]; AAPH-treated rats,46.3 ± 3.2 %
same,AOA against BHP compared to the other four groups,"[2]; AAPH-treated rats, P<0.01",increase
same,Plasma antioxidant activity against BHP,[2]; AAPH-treated rats,87.5 ± 0.3 %
"[Ca+2].[Cl-].[Cl-] [Ca^2+, CaCl2]",EC50,"[5]; FURA2 response method of Quinn et al., read-out: EC50 value for Ca^2+ derived using the method outlined in FIG. 20",3.5 mM
same,EC50,"[5]; calculated from Na+/Ca2+ ratio midpoint 36.6, Standard Experimental Buffer of 125 mM NaCl, FURA2 baseline, read-out: EC50 value for Ca",3.5 mM
phytohemaglutinin [PHA],[Ca^2+]c-high cells,mouse splenocytes,significant increases
superoxide dismutase [SOD],Plasma levels of lipid peroxide compared to the sham EF-exposed group,AAPH-treated rats,lower
same,Malondialdehyde concentration,AAPH-treated rats,1.139 ± 0.10 nmol/mL
same,Plasma AOA compared to the sham EF-exposed group,[1]; AAPH-treated rats,not different
same,Plasma AOA compared to the non-treatment group,"[1]; AAPH-treated rats, P<0.05",significantly suppressed
same,AOAAAPH,[1]; AAPH-treated rats,22.1 ± 2.5%
same,Plasma antioxidant activity against BHP,[2]; AAPH-treated rats,78.0 ± 2.1%
